From US7785828B1 (priority 2003, dated 2010) come the findings set out here.

Like-named read-outs stand apart in the source and are kept apart here.

For one assay, the system named is Mycosphaerella fijiensis. In kind it is cell-based.
The test system of assay [1] is Fusarium graminearum. It counts as cell-based.
Assay [2] deals with Fusarium graminearum. On the set-up: species or system wheat. The conditions noted are these: in vivo.
For assay [3], the system named is Septoria tritici. In kind it is cell-based.
In assay [4] the test system is Septoria tritici. In kind it is cell-based. Further details: key: + indicates a 1- to 5-fold improvement in activity compared to a reference defensin protein; ++ indicates a >5- to 10-fold improvement; +++ indicates a >10-fold improvement; “0” indicates no activity detected.
The test system of assay [5] is Fusarium graminearum. In kind it is cell-based.
[6] abbreviates: Measurement taken at 144 hours after inoculation, fold improvement compared to DmAMP1.
The mark [7] stands for this setting: Measurement taken at 72 hours after inoculation, fold improvement compared to DmAMP1.
Where [8] appears, read: Table 2B (Dm-AMP1 based libraries), improvement compared to reference defensin protein (Rs-AFP2 for Table 2B [sic]).
Setting [9] is: Table 2C (mixed diversity library), improvement compared to reference defensin protein DmAMP.

On to “NLCERASKTWSGNCGNTKHCDNQCKNWEGAKHGACHVRNGKHKCFCYFNC [L6-28] (Defensin like)”, for which the “Antifungal activity, Mycosphaerella fijiensis (improvement compared to DmAMP1)” value in the assay with Mycosphaerella fijiensis was “+ (key: + indicating 1- to 5-fold improvement compared to DmAMP1; ++ indicating >5- to 10-fold improvement; +++ indicating >10-fold improvement)”. Also, the “Antifungal activity, Fusarium graminearum (improvement compared to DmAMP1)” value with Fusarium graminearum [1] is recorded as “+++ (key: + indicating 1- to 5-fold improvement compared to DmAMP1; ++ indicating >5- to 10-fold improvement; +++ indicating >10-fold improvement)”. Moreover, in the assay on Fusarium graminearum [2], the “disease spread compared to NP or wildtype defensin expression level in the infected plant” value is “No clear correlation”. Also, the “Antifungal activity, Septoria tritici (improvement compared to DmAMP1)” value in the assay with Septoria tritici [3] is “+ (key: + indicating 1- to 5-fold improvement compared to DmAMP1; ++ indicating >5- to 10-fold improvement; +++ indicating >10-fold improvement)”.

“QKLCQKPSRTWSGVCGNNNACKNQCIRLEKARHGSCNYVFPAHKCICYFPC (Defensin like) [L2-12]”: the “disease spread compared to NP or wildtype defensin expression level in the infected plant” value with Fusarium graminearum [2] is reported as “A protective effect was also seen”.

In the case of “QKLCEKPSRTWSGVCGNNNACKNQCIRLEKARHGSCNYRFPAHKCICYVPC (Defensin like) [L1-01]”, in the assay on Septoria tritici [4], the “Activity (2): antifungal activity against Septoria tritici” value was determined as 0.

In the case of “NLCERASKTWTGNCGNTKHCDTQCKNWEGAKHGACHKRNGKWKCFCYFNC (Defensin like) [L3-42]”, in the assay with Mycosphaerella fijiensis (setting [6]), the “Antifungal activity, Mycosphaerella fijiensis (improvement compared to DmAMP1)” value is reported as “+ (+ indicating 1- to 5-fold improvement compared to DmAMP1)”. Besides, in the assay with Fusarium graminearum [1] (setting [7]), the “Antifungal activity, Fusarium graminearum (improvement compared to DmAMP1)” value was “+++ (+++ indicating >10-fold improvement)”. Also, the “Activity (1): antifungal activity of the NP against Fusarium graminearium” value (shortened to “Activity (1): antifungal activity”) with Fusarium graminearum [5] (setting [8]) is “+++ (+++ indicates a >10-fold improvement)”. Further, the “Antifungal activity, Septoria tritici (improvement compared to DmAMP1)” value in the assay on Septoria tritici [3] (setting [6]) was “++ (++ indicating >5- to 10-fold improvement)”.

Consider “DGVKLCERASQTWTGHCGNTKHCDNQCRNWEGAKHGACHKRNGKWKCFCYFNC (Defensin like) [L7-337]”, for which, in the assay with Mycosphaerella fijiensis (setting [6]), the “Antifungal activity, Mycosphaerella fijiensis (improvement compared to DmAMP1)” value is listed as “++ (++ indicating >5- to 10-fold improvement)”. Besides, the “Antifungal activity, Fusarium graminearum (improvement compared to DmAMP1)” value in the assay with Fusarium graminearum [1] (setting [7]) was “+++ (+++ indicating >10-fold improvement)”. Moreover, the “Activity (1): antifungal activity” value in the assay on Fusarium graminearum [5] (setting [9]) is listed as “++ (++ indicates a >5- to 10-fold improvement)”. In the assay with Septoria tritici [3] (setting [6]), the “Antifungal activity, Septoria tritici (improvement compared to DmAMP1)” value was “+ (+ indicating 1- to 5-fold improvement compared to DmAMP1)”.

Consider “NLCERASKTWTGNCGNTKHCDTQCKSWESAKHGACHVRSGKHKCFCYFNC (Defensin like) [L3-64]”, for which the “Antifungal activity, Mycosphaerella fijiensis (improvement compared to DmAMP1)” value in the assay with Mycosphaerella fijiensis (setting [6]) is listed as “+ (+ indicating 1- to 5-fold improvement compared to DmAMP1)”. In the assay on Fusarium graminearum [1] (setting [7]), the “Antifungal activity, Fusarium graminearum (improvement compared to DmAMP1)” value is “+++ (+++ indicating >10-fold improvement)”. Also, the “Activity (1): antifungal activity” value in the assay on Fusarium graminearum [5] (setting [8]) is recorded as “+ (+ indicates a 1- to 5-fold improvement in activity compared to a reference defensin protein)”. Moreover, the “Antifungal activity, Septoria tritici (improvement compared to DmAMP1)” value in the assay on Septoria tritici [3] (setting [6]) is “++ (++ indicating >5- to 10-fold improvement)”.

As to “DGVKLCERPSQTWTGNCGNTKHCDKQCRNWEGAKHGACHVRNGKWKCFCYFNC (Defensin like) [L7-39]”, in the assay on Mycosphaerella fijiensis (setting [6]), the “Antifungal activity, Mycosphaerella fijiensis (improvement compared to DmAMP1)” value is listed as “+ (+ indicating 1- to 5-fold improvement compared to DmAMP1)”. In addition, the “Antifungal activity, Fusarium graminearum (improvement compared to DmAMP1)” value with Fusarium graminearum [1] (setting [7]) is “+ (+ indicating 1- to 5-fold improvement compared to DmAMP1)”. The “Activity (1): antifungal activity” value with Fusarium graminearum [5] (setting [9]) is “++ (++ indicates a >5- to 10-fold improvement)”. For the same sequence, the “Antifungal activity, Septoria tritici (improvement compared to DmAMP1)” value in the assay with Septoria tritici [3] (setting [6]) is given as “+ (+ indicating 1- to 5-fold improvement compared to DmAMP1)”.

Turning to “NLCERASKTWTGNCGNTKHCDTQCKSWEGAKHGACHVRNGKHKCECYFNC (NLCERASKTWTGNCGNTKHCDTQCKSWEGAKHGACHVRNGKHKCFCYFNC; Defensin like) [L6-84]”, in the assay on Mycosphaerella fijiensis (setting [6]), the “Antifungal activity, Mycosphaerella fijiensis (improvement compared to DmAMP1)” value is recorded as “+++ (+++ indicating >10-fold improvement)”. Also, in the assay with Fusarium graminearum [1] (setting [7]), the “Antifungal activity, Fusarium graminearum (improvement compared to DmAMP1)” value was “+++ (+++ indicating >10-fold improvement)”. Also, in the assay with Fusarium graminearum [5] (setting [8]), the “Activity (1): antifungal activity” value is reported as “+++ (+++ indicates a >10-fold improvement)”. Also, the “Antifungal activity, Septoria tritici (improvement compared to DmAMP1)” value in the assay with Septoria tritici [3] (setting [6]) is recorded as “+ (+ indicating 1- to 5-fold improvement compared to DmAMP1)”.

For “NLCERASKTWTGNCGNTKHCDNQCKSWEGAKHGACHVRNGKHKCFCYFNC (Defensin like) [L9-33]”, the “Antifungal activity, Mycosphaerella fijiensis (improvement compared to DmAMP1)” value with Mycosphaerella fijiensis (setting [6]) is on record as “++ (++ indicating >5- to 10-fold improvement)”. Further, the “Antifungal activity, Fusarium graminearum (improvement compared to DmAMP1)” value with Fusarium graminearum [1] (setting [7]) was “+++ (+++ indicating >10-fold improvement)”. Also, the “Activity (1): antifungal activity” value with Fusarium graminearum [5] (setting [8]) is listed as “++ (++ indicates a >5- to 10-fold improvement)”. For the same sequence, the “Antifungal activity, Septoria tritici (improvement compared to DmAMP1)” value in the assay on Septoria tritici [3] (setting [6]) is “+++ (+++ indicating >10-fold improvement)”.

Consider “NLCERASKTWTGNCGNTKHCDTQCKSWEGAKHGACHVRNGKHKCFCYFNC (Defensin like) [L6-71]”, for which the “Antifungal activity, Mycosphaerella fijiensis (improvement compared to DmAMP1)” value with Mycosphaerella fijiensis (setting [6]) was “+ (+ indicating 1- to 5-fold improvement compared to DmAMP1)”. For the same sequence, the “Antifungal activity, Fusarium graminearum (improvement compared to DmAMP1)” value in the assay with Fusarium graminearum [1] (setting [7]) is reported as “+++ (+++ indicating >10-fold improvement)”. The “Activity (1): antifungal activity” value in the assay on Fusarium graminearum [5] (setting [8]) is reported as “+++ (+++ indicates a >10-fold improvement)”. In the assay with Septoria tritici [3] (setting [6]), the “Antifungal activity, Septoria tritici (improvement compared to DmAMP1)” value is recorded as “+ (+ indicating 1- to 5-fold improvement compared to DmAMP1)”.

With “DGVKLCERASQTWTGHCGNTKHCDNQCKNWEGAKHGACHKRSGKWKCFCYFNC (Defensin like) [L7-176]”, the “Antifungal activity, Mycosphaerella fijiensis (improvement compared to DmAMP1)” value in the assay with Mycosphaerella fijiensis (setting [6]) is “+ (+ indicating 1- to 5-fold improvement compared to DmAMP1)”. In the assay on Fusarium graminearum [1] (setting [7]), the “Antifungal activity, Fusarium graminearum (improvement compared to DmAMP1)” value is “+ (+ indicating 1- to 5-fold improvement compared to DmAMP1)”. The “Activity (1): antifungal activity” value with Fusarium graminearum [5] (setting [9]) was “+++ (+++ indicates a >10-fold improvement)”. The “Antifungal activity, Septoria tritici (improvement compared to DmAMP1)” value in the assay with Septoria tritici [3] (setting [6]) is recorded as “+ (+ indicating 1- to 5-fold improvement compared to DmAMP1)”.

Regarding “NLCERASKTWTGNCGNTKHCDTQCKNWEGAKHGACHVRSGKHKCFCYFNC (Defensin like) [L6-58]”, in the assay with Mycosphaerella fijiensis (setting [6]), the “Antifungal activity, Mycosphaerella fijiensis (improvement compared to DmAMP1)” value is recorded as “+ (+ indicating 1- to 5-fold improvement compared to DmAMP1)”. For the same sequence, in the assay with Fusarium graminearum [1] (setting [7]), the “Antifungal activity, Fusarium graminearum (improvement compared to DmAMP1)” value is listed as “+++ (+++ indicating >10-fold improvement)”. The “Activity (1): antifungal activity” value in the assay on Fusarium graminearum [5] (setting [8]) was “+++ (+++ indicates a >10-fold improvement)”. In the assay on Septoria tritici [3] (setting [6]), the “Antifungal activity, Septoria tritici (improvement compared to DmAMP1)” value is listed as “+ (+ indicating 1- to 5-fold improvement compared to DmAMP1)”.

Regarding “DGVKLCEKPSKTWSGHCGNTKHCDTQCRNWEKAKHGACHVRNGKWKCFCYFNC (Defensin like) [L7-392]”, in the assay with Mycosphaerella fijiensis (setting [6]), the “Antifungal activity, Mycosphaerella fijiensis (improvement compared to DmAMP1)” value is “+ (+ indicating 1- to 5-fold improvement compared to DmAMP1)”. Further, the “Antifungal activity, Fusarium graminearum (improvement compared to DmAMP1)” value with Fusarium graminearum [1] (setting [7]) was “+ (+ indicating 1- to 5-fold improvement compared to DmAMP1)”. For the same sequence, the “Activity (1): antifungal activity” value in the assay with Fusarium graminearum [5] (setting [9]) is listed as “+++ (+++ indicates a >10-fold improvement)”. Further, the “Antifungal activity, Septoria tritici (improvement compared to DmAMP1)” value with Septoria tritici [3] (setting [6]) is “+ (+ indicating 1- to 5-fold improvement compared to DmAMP1)”.

Regarding “QKLCQRPSGTWSGVCMNNNACKNQCIRLEKAKHGSCNYVFPAHKCICYFPC (Defensin like) [L2-52]”, the “disease spread compared to NP or wildtype defensin expression level in the infected plant” value in the assay with Fusarium graminearum [2] is given as “No clear correlation”.

Consider “ELCEKASKTWSGNCGNTKHCDTQCKNWEGAKHGACHVRSGKHKCFCYFNC (Defensin like) [L3-135]”, for which the “disease spread compared to NP or wildtype defensin expression level in the infected plant” value in the assay on Fusarium graminearum [2] was “clear inverse correlation between expression level and disease spread”.
